According to ChEMBL document CHEMBL5321235, “Design, synthesis, and SAR study of novel flavone 1,2,4-oxadiazole derivatives with anti-inflammatory activities for the treatment of Parkinson's disease” (Eur J Med Chem, 2023):
The source made the active and inactive calls. The calls are words filed in the database; no cut-off is given here.

Legend:
BV-2 [1] = assay: Induction of apoptosis in LPS-induced mouse BV-2 cells assessed as increase in Caspase3 expression at 5 to 10 uM pretreated for 18 hrs followed by LPS-stimulation and measured after 6 hrs by immunofluorescence analysis; format: functional, cell-based; conditions: dose 5-10 µM, time 24.0 hrs
BV-2 [2] = assay: Antiinflammatory activity in LPS-induced mouse BV-2 cells assessed as reduction in IL-1beta mRNA expression at 5 to 10 uM pretreated for 18 hrs followed by LPS-stimulation and measured after 6 hrs by qRT-PCR analysis; format: functional, cell-based; conditions: dose 5-10 µM, time 24.0 hrs
BV-2 [3] = assay: Induction of apoptosis in mouse LPS-induced BV-2 cells assessed as increase in Bcl-2 expression at 5 to 10 uM pretreated for 18 hrs followed by LPS-stimulation and measured after 6 hrs by Western blot analysis; format: functional, cell-based; conditions: dose 5-10 µM, time 24.0 hrs
Microglia [4] = assay: Neuroprotective activity against MPTP-induced apoptosis in mouse microglia assessed as increase in Bcl2 expression in brain tissue at 15 mg/kg, ip administered with compound once daily for 2 weeks followed by MPTP addition on day 8 and measured after 2 weeks of compound addition by Western blot analysis; format: functional, organism-based
Mus musculus [5] = assay: Anti-parkinson activity in MPTP-induced C57BL/6J mouse model at 15 to 35 mg/kg, ip administered with compound once daily for 2 weeks followed by MPTP addition on day 8 and measured after 2 weeks of compound addition by rotarod test; format: functional, organism-based; conditions: dose 15-35 mg/kg
BV-2 [6] = assay: Antiinflammatory activity in LPS-induced mouse BV-2 cells assessed as reduction in TNF-alpha mRNA expression at 5 to 10 uM pretreated for 18 hrs followed by LPS-stimulation and measured after 6 hrs by qRT-PCR analysis; format: functional, cell-based; conditions: dose 5-10 µM, time 24.0 hrs
Mus musculus [7] = assay: Antiinflammatory activity in C57BL/6J mouse assessed as inhibition of MPTP-induced ERK phosphorylation at 15 mg/kg, ip administered with compound once daily for 2 weeks followed by MPTP addition on day 8 and measured after 2 weeks of compound addition Western blot analysis; format: functional, organism-based
BV-2 [8] = assay: Inhibition of LPS-induced NF-kappaB nuclear translocation in mouse BV-2 cells at 5 to 10 uM pretreated for 18 hrs followed by LPS-stimulation and measured after 6 hrs by immunofluorescence analysis; format: cell-based; conditions: dose 5-10 µM, time 24.0 hrs
[9] = molecular target: MAP kinase p38 (Mus musculus) (UniProt P47811+O08911+Q9WUI1+Q9Z1B7); assay: Inhibition of LPS-induced p38 phosphorylation in mouse BV-2 cells at 5 to 10 uM pretreated for 12 hrs followed by LPS-stimulation and measured after 6 hrs by Western blot analysis; format: cell-based; conditions: dose 5-10 µM, time 18.0 hrs
Microglia [10] = assay: Neuroprotective activity against MPTP-induced apoptosis in mouse microglia assessed as increase in Caspase3 expression in brain tissue at 15 mg/kg, ip administered with compound once daily for 2 weeks followed by MPTP addition on day 8 and measured after 2 weeks of compound addition by Western blot analysis; format: functional, organism-based
BV-2 [11] = assay: Induction of apoptosis in LPS-induced mouse BV-2 cells assessed as increase in BAX mRNA expression at 5 to 10 uM pretreated for 18 hrs followed by LPS-stimulation and measured after 6 hrs by qRT-PCR analysis; format: functional, cell-based; conditions: dose 5-10 µM, time 24.0 hrs
BV-2 [12] = assay: Antiinflammatory activity in LPS-induced mouse BV-2 cells assessed as increase in IL-10 mRNA expression at 5 to 10 uM pretreated for 18 hrs followed by LPS-stimulation and measured after 6 hrs by qRT-PCR analysis; format: functional, cell-based; conditions: dose 5-10 µM, time 24.0 hrs
BV-2 [13] = assay: Antiinflammatory activity in mouse BV-2 cells assessed as inhibition of LPS-induced NO production at 5 uM pretreated for 18 hrs followed by LPS-induction and measured after 6 hrs relative to control; format: functional; set-up: scale not given: the % may be the effect or the level left; conditions: time 24 hrs
Mus musculus [14] = assay: Antiinflammatory activity in C57BL/6J mouse assessed as inhibition of MPTP-induced NF-kappaB phosphorylation at 15 mg/kg, ip administered with compound once daily for 2 weeks followed by MPTP addition on day 8 and measured after 2 weeks of compound addition Western blot analysis; format: functional, organism-based
Mus musculus [15] = assay: Anti-parkinson activity in MPTP-induced C57BL/6J mouse model assessed as increase in locomotion at 15 to 35 mg/kg, ip administered with compound once daily for 2 weeks followed by MPTP addition on day 8 and measured after 2 weeks of compound addition by open field test; format: functional, organism-based; conditions: dose 15-35 mg/kg
BV-2 [16] = assay: Induction of apoptosis in LPS-induced mouse BV-2 cells assessed as increase in Bcl-2 expression at 5 to 10 uM pretreated for 18 hrs followed by LPS-stimulation and measured after 6 hrs by immunofluorescence analysis; format: functional, cell-based; conditions: dose 5-10 µM, time 24.0 hrs
Mus musculus [17] = assay: Antiinflammatory activity in MPTP-induced C57BL/6J mouse assessed as increase in IL-10 expression at 15 mg/kg, ip administered with compound once daily for 2 weeks followed by MPTP addition on day 8 and measured after 2 weeks of compound addition Western blot analysis; format: functional, organism-based
BV-2 [18] = assay: Induction of apoptosis in LPS-induced mouse BV-2 cells assessed as increase in BAX expression at 5 to 10 uM pretreated for 18 hrs followed by LPS-stimulation and measured after 6 hrs by Western blot analysis; format: functional, cell-based; conditions: dose 5-10 µM, time 24.0 hrs
Microglia [19] = assay: Neuroprotective activity against MPTP-induced apoptosis in mouse microglia assessed as reduction in apoptotic cells in brain tissue at 15 mg/kg, ip administered with compound once daily for 2 weeks followed by MPTP addition on day 8 and measured after 2 weeks of compound addition by TUNEL staining based immunofluorescence analysis; format: functional, organism-based
BV-2 [20] = assay: Antiinflammatory activity in LPS-induced mouse BV-2 cells assessed as reduction in IL-6 mRNA expression at 5 to 10 uM pretreated for 18 hrs followed by LPS-stimulation and measured after 6 hrs by qRT-PCR analysis; format: functional, cell-based; conditions: dose 5-10 µM, time 24.0 hrs
BV-2 [21] = assay: Antiinflammatory activity in LPS-induced mouse BV-2 cells assessed as increase in Arg-1 mRNA expression at 5 to 10 uM pretreated for 18 hrs followed by LPS-stimulation and measured after 6 hrs by qRT-PCR analysis; format: functional, cell-based; conditions: dose 5-10 µM, time 24.0 hrs
BV-2 [22] = assay: Induction of apoptosis in LPS-induced mouse BV-2 cells assessed as increase in Bcl-2 mRNA expression at 5 to 10 uM pretreated for 18 hrs followed by LPS-stimulation and measured after 6 hrs by qRT-PCR analysis; format: functional, cell-based; conditions: dose 5-10 µM, time 24.0 hrs
BV-2 [23] = assay: Cytotoxicity against mouse BV-2 cells assessed as reduction in cell viability at 5 uM pretreated for 18 hrs followed by LPS-stimulation and measured after 6 hrs by MTT assay; format: toxicity, cell-based; conditions: bv-2, 24 h
BV-2 [24] = assay: Induction of apoptosis in LPS-induced mouse BV-2 cells assessed as increase in Caspase3 expression at 5 to 10 uM pretreated for 18 hrs followed by LPS-stimulation and measured after 6 hrs by Western blot analysis; format: functional, cell-based; conditions: dose 5-10 µM, time 24.0 hrs
BV-2 [25] = assay: Inhibition of LPS-induced ERK phosphorylation in mouse BV-2 cells at 5 to 10 uM pretreated for 12 hrs followed by LPS-stimulation and measured after 6 hrs by Western blot analysis; format: cell-based; conditions: dose 5-10 µM, time 18.0 hrs
Microglia [26] = assay: Neuroprotective activity against MPTP-induced apoptosis in mouse microglia assessed as […] expression in brain tissue at 15 mg/kg, ip administered with compound once daily for 2 weeks followed by MPTP addition on day 8 and measured after 2 weeks of compound addition; format: functional, organism-based
Mus musculus [27] = assay: Antiinflammatory activity in C57BL/6J mouse assessed as inhibition of MPTP-induced p38 phosphorylation at 15 mg/kg, ip administered with compound once daily for 2 weeks followed by MPTP addition on day 8 and measured after 2 weeks of compound addition Western blot analysis; format: functional, organism-based

Compound: Cc1cccc(-c2noc(-c3cccc4c(=O)c(C)c(-c5ccccc5)oc34)n2)c1
- Activity (BV-2 [1]): Active
- Activity (BV-2 [2]): Active
- Activity (BV-2 [3]): Active
- Activity (Microglia [4]): Active
- Activity (Mus musculus [5]): Active
- Activity (BV-2 [6]): Active
- Activity (Mus musculus [7]): Active
- inhibition (BV-2 [8]): Active
- inhibition [9]: Active
- Activity (Microglia [10]): Active
- Activity (BV-2 [11]): Active
- Activity (BV-2 [12]): Active
- Activity (BV-2 [13]): 64.2%
- Activity (Mus musculus [14]): Active
- Activity (Mus musculus [15]): Active
- Activity (BV-2 [16]): Active
- Activity (Mus musculus [17]): Active
- Activity (BV-2 [18]): Active
- Activity (Microglia [19]): Active
- Activity (BV-2 [20]): Active
- Activity (BV-2 [21]): Active
- Activity (BV-2 [22]): Active
- Activity (BV-2 [23]): Non-Toxic
- Activity (BV-2 [24]): Active
- inhibition (BV-2 [25]): Active
- Activity (Microglia [26]): Active
- Activity (Mus musculus [27]): Active
